Measurements taken from ChEMBL document CHEMBL3885861, “Open TG-GATES”.

Species on record: Rattus norvegicus
Experiment: Open TG-GATES - Regimen: Daily Repeat
Type: toxicity, organism-based, Sprague-Dawley
Design: regimen Daily Repeat, gender Male, age 6 weeks
Settings: in vivo, po, 0 mg/kg, route gavage, dose level Control; for APTT / Bas / Eos / Fbg / Hb / Ht / Lym / MCH / MCHC / MCV / Mono / Neu / PT / Plat / RBC / Ret / WBC: tissue Blood; for KIDNEY_L / KIDNEY_R / KIDNEY_TOTAL: tissue Kidney; for LIVER: tissue Liver; for A/G / ALP / ALT / AST / BUN / CRE / Ca / Cl / DBIL / GLC / IP / LDH / Na / PL / RALB / TBIL / TC / TG / TP / gamma-GTP: tissue Plasma

NC(N)=Nc1nc(CSCCC(N)=NS(N)(=O)=O)cs1 [FAMOTIDINE] showed a TERMINAL_BW (72 h, time 3 day) of 227 g, an APTT (72 h, time 3 day) of 19.5 s and a Bas (72 h, time 3 day) of 0%. It also gave an Eos (72 h, time 3 day) of 1%, a Fbg (72 h, time 3 day) of 221.4 mg/dL and a Hb (72 h, time 3 day) of 13.5 g/dL. For the same compound, the Ht (72 h, time 3 day) was 37.4%, the Lym (72 h, time 3 day) was 73.8% and the MCH (72 h, time 3 day) was 22.4 pg. For the same compound, the MCHC (72 h, time 3 day) was 36.1%, the MCV (72 h, time 3 day) was 61.9 fL and the Mono (72 h, time 3 day) was 3.2%. It also gave a Neu (72 h, time 3 day) of 20.6%, a PT (72 h, time 3 day) of 11.8 s and a Plat (72 h, time 3 day) of 125.1 x10_4/uL. For the same compound, the RBC (72 h, time 3 day) was 604.6 x10_4/ul, the Ret (72 h, time 3 day) was 5.7% and the WBC (72 h, time 3 day) was 75.1 x10_2/uL. For the same compound, the KIDNEY_L (72 h, time 3 day) was 1 g, the KIDNEY_R (72 h, time 3 day) was 1 g and the KIDNEY_TOTAL (72 h, time 3 day) was 2 g. The LIVER (72 h, time 3 day) was 10.4 g, the A/G (72 h, time 3 day) was 1.5 and the ALP (72 h, time 3 day) was 999.6 IU/L. The ALT (72 h, time 3 day) was 31.4 IU/L, the AST (72 h, time 3 day) was 64.2 IU/L and the BUN (72 h, time 3 day) was 13.8 mg/dL. It also gave a CRE (72 h, time 3 day) of 0.4 mg/dL, a Ca (72 h, time 3 day) of 10.7 mg/dL and a Cl (72 h, time 3 day) of 103.2 meq/L. The DBIL (72 h, time 3 day) was 0.086 mg/dL, the GLC (72 h, time 3 day) was 190.6 mg/dL and the IP (72 h, time 3 day) was 7.2 mg/dL. For the same compound, the LDH (72 h, time 3 day) was 194 IU/L, the Na (72 h, time 3 day) was 139.8 meq/L and the PL (72 h, time 3 day) was 139.6 mg/dL. The RALB (72 h, time 3 day) was 3.4 g/dL, the TBIL (72 h, time 3 day) was 0.1 mg/dL and the TC (72 h, time 3 day) was 76.6 mg/dL. For the same compound, the TG (72 h, time 3 day) was 78.4 mg/dL, the TP (72 h, time 3 day) was 5.5 g/dL and the gamma-GTP (72 h, time 3 day) was 1 IU/L. For the same compound, the TERMINAL_BW ([…], time 7 day) was 257.4 g, the TERMINAL_BW ([…], time 14 day) was 314.4 g and the TERMINAL_BW ([…], time 28 day) was 376 g. It also gave an APTT ([…], time 7 day) of 20.1 s, a Bas ([…], time 7 day) of 0% and an Eos ([…], time 7 day) of 0.8%. The Fbg ([…], time 7 day) was 230 mg/dL, the Hb ([…], time 7 day) was 13.7 g/dL and the Ht ([…], time 7 day) was 38.3%. For the same compound, the Lym ([…], time 7 day) was 80.4%, the MCH ([…], time 7 day) was 22.2 pg and the MCHC ([…], time 7 day) was 35.8%. For the same compound, the MCV ([…], time 7 day) was 62 fL, the Mono ([…], time 7 day) was 2.4% and the Neu ([…], time 7 day) was 14.8%. For the same compound, the PT ([…], time 7 day) was 11.8 s, the Plat ([…], time 7 day) was 126.2 x10_4/uL and the RBC ([…], time 7 day) was 618.2 x10_4/ul. The Ret ([…], time 7 day) was 5%, the WBC ([…], time 7 day) was 82.2 x10_2/uL and the APTT ([…], time 14 day) was 22.3 s. It also gave a Bas ([…], time 14 day) of 0%, an Eos ([…], time 14 day) of 1% and a Fbg ([…], time 14 day) of 229.4 mg/dL. The Hb ([…], time 14 day) was 14.3 g/dL, the Ht ([…], time 14 day) was 41.9% and the Lym ([…], time 14 day) was 81.8%. For the same compound, the MCH ([…], time 14 day) was 20.8 pg, the MCHC ([…], time 14 day) was 34.1% and the MCV ([…], time 14 day) was 60.9 fL. It also gave a Mono ([…], time 14 day) of 1.6%, a Neu ([…], time 14 day) of 14.2% and a PT ([…], time 14 day) of 12.3 s. For the same compound, the Plat ([…], time 14 day) was 118.4 x10_4/uL, the RBC ([…], time 14 day) was 689 x10_4/ul and the Ret ([…], time 14 day) was 4.5%. It also gave a WBC ([…], time 14 day) of 112.3 x10_2/uL, an APTT ([…], time 28 day) of 21.3 s and a Bas ([…], time 28 day) of 0%. For the same compound, the Eos ([…], time 28 day) was 1%, the Fbg ([…], time 28 day) was 233.6 mg/dL and the Hb ([…], time 28 day) was 15.4 g/dL. It also gave a Ht ([…], time 28 day) of 43.5%, a Lym ([…], time 28 day) of 80.8% and an MCH ([…], time 28 day) of 20 pg. For the same compound, the MCHC ([…], time 28 day) was 35.3%, the MCV ([…], time 28 day) was 56.6 fL and the Mono ([…], time 28 day) was 2.2%. The Neu ([…], time 28 day) was 14.6%, the PT ([…], time 28 day) was 12.2 s and the Plat ([…], time 28 day) was 98.4 x10_4/uL. It also gave an RBC ([…], time 28 day) of 769 x10_4/ul, a Ret ([…], time 28 day) of 2.3% and a WBC ([…], time 28 day) of 84.1 x10_2/uL. The KIDNEY_L ([…], time 7 day) was 1.1 g, the KIDNEY_R ([…], time 7 day) was 1.1 g and the KIDNEY_TOTAL ([…], time 7 day) was 2.2 g. For the same compound, the KIDNEY_L ([…], time 14 day) was 1.3 g, the KIDNEY_R ([…], time 14 day) was 1.2 g and the KIDNEY_TOTAL ([…], time 14 day) was 2.5 g. The KIDNEY_L ([…], time 28 day) was 1.4 g, the KIDNEY_R ([…], time 28 day) was 1.4 g and the KIDNEY_TOTAL ([…], time 28 day) was 2.8 g. The LIVER ([…], time 7 day) was 12.2 g, the LIVER ([…], time 14 day) was 14 g and the LIVER ([…], time 28 day) was 15.1 g. For the same compound, the A/G ([…], time 7 day) was 1.5, the ALP ([…], time 7 day) was 1109 IU/L and the ALT ([…], time 7 day) was 39.6 IU/L. The AST ([…], time 7 day) was 71.4 IU/L, the BUN ([…], time 7 day) was 16.6 mg/dL and the CRE ([…], time 7 day) was 0.4 mg/dL. The Ca ([…], time 7 day) was 10.7 mg/dL, the Cl ([…], time 7 day) was 102.8 meq/L and the DBIL ([…], time 7 day) was 0.094 mg/dL. For the same compound, the GLC ([…], time 7 day) was 200.6 mg/dL, the IP ([…], time 7 day) was 7.5 mg/dL and the LDH ([…], time 7 day) was 176.2 IU/L. The Na ([…], time 7 day) was 140.6 meq/L, the PL ([…], time 7 day) was 156.6 mg/dL and the RALB ([…], time 7 day) was 3.5 g/dL. It also gave a TBIL ([…], time 7 day) of 0.2 mg/dL, a TC ([…], time 7 day) of 78 mg/dL and a TG ([…], time 7 day) of 101.8 mg/dL. For the same compound, the TP ([…], time 7 day) was 5.7 g/dL, the gamma-GTP ([…], time 7 day) was 0.8 IU/L and the A/G ([…], time 14 day) was 1.5. For the same compound, the ALP ([…], time 14 day) was 794.6 IU/L, the ALT ([…], time 14 day) was 33.4 IU/L and the AST ([…], time 14 day) was 62 IU/L. For the same compound, the BUN ([…], time 14 day) was 15.8 mg/dL, the CRE ([…], time 14 day) was 0.5 mg/dL and the Ca ([…], time 14 day) was 10.8 mg/dL. The Cl ([…], time 14 day) was 103.2 meq/L, the DBIL ([…], time 14 day) was 0.096 mg/dL and the GLC ([…], time 14 day) was 208 mg/dL. It also gave an IP ([…], time 14 day) of 7.2 mg/dL, an LDH ([…], time 14 day) of 153.2 IU/L and a Na ([…], time 14 day) of 140.4 meq/L. It also gave a PL ([…], time 14 day) of 146.6 mg/dL, an RALB ([…], time 14 day) of 3.4 g/dL and a TBIL ([…], time 14 day) of 0.2 mg/dL. It also gave a TC ([…], time 14 day) of 75 mg/dL, a TG ([…], time 14 day) of 96.4 mg/dL and a TP ([…], time 14 day) of 5.7 g/dL. The gamma-GTP ([…], time 14 day) was 1.4 IU/L, the A/G ([…], time 28 day) was 1.3 and the ALP ([…], time 28 day) was 664.6 IU/L. The ALT ([…], time 28 day) was 32.4 IU/L, the AST ([…], time 28 day) was 59 IU/L and the BUN ([…], time 28 day) was 18.6 mg/dL. It also gave a CRE ([…], time 28 day) of 0.6 mg/dL, a Ca ([…], time 28 day) of 10.2 mg/dL and a Cl ([…], time 28 day) of 103.6 meq/L. It also gave a DBIL ([…], time 28 day) of 0.07 mg/dL, a GLC ([…], time 28 day) of 217.4 mg/dL and an IP ([…], time 28 day) of 6.7 mg/dL. It also gave an LDH ([…], time 28 day) of 123 IU/L, a Na ([…], time 28 day) of 141 meq/L and a PL ([…], time 28 day) of 141.8 mg/dL. It also gave an RALB ([…], time 28 day) of 3.5 g/dL, a TBIL ([…], time 28 day) of 0.1 mg/dL and a TC ([…], time 28 day) of 74.6 mg/dL. For the same compound, the TG ([…], time 28 day) was 82.8 mg/dL, the TP ([…], time 28 day) was 6.1 g/dL and the gamma-GTP ([…], time 28 day) was 1 IU/L.
